Assay results published in patent US20230398130A1, “METHODS AND COMPOSITIONS FOR DIFFERENTIATING STEM CELLS” (Massachusetts Institute of Technology, priority 2020, published 2023).

Experiments:
ISC-enriched organoids [1] = experiment: Primary screen, 384-well 2.5-D organoid differentiation (ENR+CD, 6 days): carbachol-induced lysozyme secretion (LYZ.S); assay type: cell-based, murine; conditions: primary screen; for Dose.FC.LYZ.S: FC vs plate median; for Z.LYZ.S: standard z score; for SSMD.LYZ.S: strictly standardized mean difference
From the text: (§1) High-throughput screening.

ISC-enriched organoids [2] = experiment: Primary screen, 384-well 2.5-D organoid differentiation (ENR+CD, 6 days): basal lysozyme secretion (LYZ.NS); assay type: cell-based, murine; conditions: for Dose.FC.LYZ.NS / SSMD.LYZ.NS: primary screen; for Dose.FC.LYZ.NS: FC vs plate median; for Z.LYZ.NS: standard z score of FC; for SSMD.LYZ.NS: strictly standardized mean difference
From the text: as §1

ISC-enriched organoids [3] = experiment: Primary screen, 384-well 2.5-D organoid differentiation (ENR+CD, 6 days, Target Selective Inhibitor Library, vs whole-plate median): ATP (CellTiter-Glo 3D, CTG); conditions: for Dose.FC.CTG / SSMD.CTG: primary screen; for Dose.FC.CTG: FC vs plate median; for Z.CTG: standard z score of FC; for SSMD.CTG: strictly standardized mean difference
[4] = 1st of the 4 dose lines of the treatment (dose not given)
[5] = 2nd of the 4 dose lines of the treatment (dose not given)
[6] = 3rd of the 4 dose lines of the treatment (dose not given)
[7] = 4th of the 4 dose lines of the treatment (dose not given)

## Cl.Cl.NC1(c2ccc(-c3nc4ccn5c(=O)[nH]nc5c4cc3-c3ccccc3)cc2)CCC1 [MK-2206 2HCl]
ISC-enriched organoids [1]; Dose 0.08 uM
  Dose.FC.LYZ.S: 0.071 log 2 fold change
ISC-enriched organoids [1]; Dose 0.40 uM
  Dose.FC.LYZ.S: 0.083 log 2 fold change
ISC-enriched organoids [1]; Dose 2.00 uM
  Dose.FC.LYZ.S: −0.239 log 2 fold change
ISC-enriched organoids [1]; Dose 10.00 uM
  Dose.FC.LYZ.S: −0.367 log 2 fold change
ISC-enriched organoids [1]; [4]
  Z.LYZ.S: 0.460
  SSMD.LYZ.S: 0.403
ISC-enriched organoids [1]; [5]
  Z.LYZ.S: 0.536
  SSMD.LYZ.S: 0.232
ISC-enriched organoids [1]; [6]
  Z.LYZ.S: −1.546
  SSMD.LYZ.S: −1.686
ISC-enriched organoids [1]; [7]
  Z.LYZ.S: −2.370
  SSMD.LYZ.S: −1.628
ISC-enriched organoids [2]; Dose 0.08 uM
  Dose.FC.LYZ.NS: 0.024 log 2 fold change
  Z.LYZ.NS: 0.205
ISC-enriched organoids [2]; Dose 0.40 uM
  Dose.FC.LYZ.NS: −0.063 log 2 fold change
  Z.LYZ.NS: −0.550
ISC-enriched organoids [2]; Dose 2.00 uM
  Dose.FC.LYZ.NS: −0.182 log 2 fold change
  Z.LYZ.NS: −1.587
ISC-enriched organoids [2]; Dose 10.00 uM
  Dose.FC.LYZ.NS: −0.236 log 2 fold change
  Z.LYZ.NS: −2.058
ISC-enriched organoids [2]; [4]
  SSMD.LYZ.NS: 0.230
ISC-enriched organoids [2]; [5]
  SSMD.LYZ.NS: −0.481
ISC-enriched organoids [2]; [6]
  SSMD.LYZ.NS: −1.586
ISC-enriched organoids [2]; [7]
  SSMD.LYZ.NS: −1.642
ISC-enriched organoids [3]; Dose 0.08 uM
  Dose.FC.CTG: 0.071 log 2 fold change
  Z.CTG: 0.169
ISC-enriched organoids [3]; Dose 0.40 uM
  Dose.FC.CTG: −0.023 log 2 fold change
  Z.CTG: −0.055
ISC-enriched organoids [3]; Dose 2.00 uM
  Dose.FC.CTG: −0.178 log 2 fold change
  Z.CTG: −0.425
ISC-enriched organoids [3]; Dose 10.00 uM
  Dose.FC.CTG: −0.540 log 2 fold change
  Z.CTG: −1.290
ISC-enriched organoids [3]; [4]
  SSMD.CTG: 0.242
ISC-enriched organoids [3]; [5]
  SSMD.CTG: −0.074
ISC-enriched organoids [3]; [6]
  SSMD.CTG: −0.453
ISC-enriched organoids [3]; [7]
  SSMD.CTG: −1.730

## C[C@](O)(COc1ccc(C#N)cc1)C(=O)Nc1ccc(C#N)c(C(F)(F)F)c1 [MK-2866 (GTx-024)]
ISC-enriched organoids [1]; Dose 0.08 uM
  Dose.FC.LYZ.S: 0.072 log 2 fold change
ISC-enriched organoids [1]; Dose 0.40 uM
  Dose.FC.LYZ.S: 0.050 log 2 fold change
ISC-enriched organoids [1]; Dose 2.00 uM
  Dose.FC.LYZ.S: 0.078 log 2 fold change
ISC-enriched organoids [1]; Dose 10.00 uM
  Dose.FC.LYZ.S: −0.072 log 2 fold change
ISC-enriched organoids [1]; [4]
  Z.LYZ.S: 0.466
  SSMD.LYZ.S: 0.378
ISC-enriched organoids [1]; [5]
  Z.LYZ.S: 0.322
  SSMD.LYZ.S: 0.164
ISC-enriched organoids [1]; [6]
  Z.LYZ.S: 0.506
  SSMD.LYZ.S: 0.307
ISC-enriched organoids [1]; [7]
  Z.LYZ.S: −0.463
  SSMD.LYZ.S: −0.543
ISC-enriched organoids [2]; Dose 0.08 uM
  Dose.FC.LYZ.NS: 0.035 log 2 fold change
  Z.LYZ.NS: 0.309
ISC-enriched organoids [2]; Dose 0.40 uM
  Dose.FC.LYZ.NS: 0.028 log 2 fold change
  Z.LYZ.NS: 0.241
ISC-enriched organoids [2]; Dose 2.00 uM
  Dose.FC.LYZ.NS: 0.036 log 2 fold change
  Z.LYZ.NS: 0.310
ISC-enriched organoids [2]; Dose 10.00 uM
  Dose.FC.LYZ.NS: −0.059 log 2 fold change
  Z.LYZ.NS: −0.510
ISC-enriched organoids [2]; [4]
  SSMD.LYZ.NS: 0.314
ISC-enriched organoids [2]; [5]
  SSMD.LYZ.NS: 0.150
ISC-enriched organoids [2]; [6]
  SSMD.LYZ.NS: 0.169
ISC-enriched organoids [2]; [7]
  SSMD.LYZ.NS: −0.515
ISC-enriched organoids [3]; Dose 0.08 uM
  Dose.FC.CTG: 0.001 log 2 fold change
  Z.CTG: 0.003
ISC-enriched organoids [3]; Dose 0.40 uM
  Dose.FC.CTG: −0.198 log 2 fold change
  Z.CTG: −0.474
ISC-enriched organoids [3]; Dose 2.00 uM
  Dose.FC.CTG: −0.088 log 2 fold change
  Z.CTG: −0.210
ISC-enriched organoids [3]; Dose 10.00 uM
  Dose.FC.CTG: −0.367 log 2 fold change
  Z.CTG: −0.877
ISC-enriched organoids [3]; [4]
  SSMD.CTG: 0.004
ISC-enriched organoids [3]; [5]
  SSMD.CTG: −0.285
ISC-enriched organoids [3]; [6]
  SSMD.CTG: −0.199
ISC-enriched organoids [3]; [7]
  SSMD.CTG: −0.814

## O=C(O)Cn1nnc(-c2cc(N3CCC(Oc4cc(F)ccc4Br)CC3)no2)n1 [MK-8245]
ISC-enriched organoids [1]; [4]
  Z.LYZ.S: 0.449
  SSMD.LYZ.S: 0.442
ISC-enriched organoids [1]; [5]
  Z.LYZ.S: 1.194
  SSMD.LYZ.S: 0.527
ISC-enriched organoids [1]; [6]
  Z.LYZ.S: −0.399
  SSMD.LYZ.S: −0.357
ISC-enriched organoids [1]; [7]
  Z.LYZ.S: −0.799
  SSMD.LYZ.S: −0.752
ISC-enriched organoids [2]; [4]
  SSMD.LYZ.NS: 0.168
ISC-enriched organoids [2]; [5]
  SSMD.LYZ.NS: 0.200
ISC-enriched organoids [2]; [6]
  SSMD.LYZ.NS: −0.322
ISC-enriched organoids [2]; [7]
  SSMD.LYZ.NS: −0.716
ISC-enriched organoids [3]; Dose 0.08 uM
  Z.CTG: 0.374
ISC-enriched organoids [3]; Dose 0.40 uM
  Z.CTG: −0.269
ISC-enriched organoids [3]; Dose 2.00 uM
  Z.CTG: −0.051
ISC-enriched organoids [3]; Dose 10.00 uM
  Z.CTG: −0.629
ISC-enriched organoids [3]; [4]
  SSMD.CTG: 0.453
ISC-enriched organoids [3]; [5]
  SSMD.CTG: −0.219
ISC-enriched organoids [3]; [6]
  SSMD.CTG: −0.054
ISC-enriched organoids [3]; [7]
  SSMD.CTG: −0.921

## COc1ccc(CNCc2cccc3ccccc23)cc1.Cl [ML133 HCl]
ISC-enriched organoids [1]; Dose 0.08 uM
  Dose.FC.LYZ.S: 0.062 log 2 fold change
ISC-enriched organoids [1]; Dose 0.40 uM
  Dose.FC.LYZ.S: −0.018 log 2 fold change
ISC-enriched organoids [1]; Dose 2.00 uM
  Dose.FC.LYZ.S: 0.087 log 2 fold change
ISC-enriched organoids [1]; Dose 10.00 uM
  Dose.FC.LYZ.S: −0.014 log 2 fold change
ISC-enriched organoids [1]; [4]
  Z.LYZ.S: 0.404
  SSMD.LYZ.S: 0.324
ISC-enriched organoids [1]; [5]
  Z.LYZ.S: −0.118
  SSMD.LYZ.S: −0.129
ISC-enriched organoids [1]; [6]
  Z.LYZ.S: 0.565
  SSMD.LYZ.S: 0.368
ISC-enriched organoids [1]; [7]
  Z.LYZ.S: −0.089
  SSMD.LYZ.S: −0.088
ISC-enriched organoids [2]; Dose 0.08 uM
  Dose.FC.LYZ.NS: 0.030 log 2 fold change
  Z.LYZ.NS: 0.261
ISC-enriched organoids [2]; Dose 0.40 uM
  Dose.FC.LYZ.NS: −0.013 log 2 fold change
  Z.LYZ.NS: −0.116
ISC-enriched organoids [2]; Dose 2.00 uM
  Dose.FC.LYZ.NS: 0.073 log 2 fold change
  Z.LYZ.NS: 0.633
ISC-enriched organoids [2]; Dose 10.00 uM
  Dose.FC.LYZ.NS: −0.018 log 2 fold change
  Z.LYZ.NS: −0.155
ISC-enriched organoids [2]; [4]
  SSMD.LYZ.NS: 0.282
ISC-enriched organoids [2]; [5]
  SSMD.LYZ.NS: −0.131
ISC-enriched organoids [2]; [6]
  SSMD.LYZ.NS: 0.740
ISC-enriched organoids [2]; [7]
  SSMD.LYZ.NS: −0.152
ISC-enriched organoids [3]; Dose 0.08 uM
  Dose.FC.CTG: −0.009 log 2 fold change
  Z.CTG: −0.023
ISC-enriched organoids [3]; Dose 0.40 uM
  Dose.FC.CTG: −0.151 log 2 fold change
  Z.CTG: −0.360
ISC-enriched organoids [3]; Dose 2.00 uM
  Dose.FC.CTG: −0.247 log 2 fold change
  Z.CTG: −0.591
ISC-enriched organoids [3]; Dose 10.00 uM
  Dose.FC.CTG: −0.040 log 2 fold change
  Z.CTG: −0.096
ISC-enriched organoids [3]; [4]
  SSMD.CTG: −0.026
ISC-enriched organoids [3]; [5]
  SSMD.CTG: −0.437
ISC-enriched organoids [3]; [6]
  SSMD.CTG: −0.560
ISC-enriched organoids [3]; [7]
  SSMD.CTG: −0.133

## CCCC(=O)Nc1cccc(NC(=O)c2ccccc2Br)c1 [ML161]
ISC-enriched organoids [1]; Dose 0.08 uM
  Dose.FC.LYZ.S: 0.017 log 2 fold change
ISC-enriched organoids [1]; Dose 0.40 uM
  Dose.FC.LYZ.S: −0.027 log 2 fold change
ISC-enriched organoids [1]; Dose 2.00 uM
  Dose.FC.LYZ.S: 0.024 log 2 fold change
ISC-enriched organoids [1]; Dose 10.00 uM
  Dose.FC.LYZ.S: −0.066 log 2 fold change
ISC-enriched organoids [1]; [4]
  Z.LYZ.S: 0.113
  SSMD.LYZ.S: 0.096
ISC-enriched organoids [1]; [5]
  Z.LYZ.S: −0.173
  SSMD.LYZ.S: −0.148
ISC-enriched organoids [1]; [6]
  Z.LYZ.S: 0.158
  SSMD.LYZ.S: 0.152
ISC-enriched organoids [1]; [7]
  Z.LYZ.S: −0.429
  SSMD.LYZ.S: −0.282
ISC-enriched organoids [2]; Dose 0.08 uM
  Dose.FC.LYZ.NS: 0.018 log 2 fold change
  Z.LYZ.NS: 0.158
ISC-enriched organoids [2]; Dose 0.40 uM
  Dose.FC.LYZ.NS: −0.027 log 2 fold change
  Z.LYZ.NS: −0.237
ISC-enriched organoids [2]; Dose 2.00 uM
  Dose.FC.LYZ.NS: 0.037 log 2 fold change
  Z.LYZ.NS: 0.323
ISC-enriched organoids [2]; Dose 10.00 uM
  Dose.FC.LYZ.NS: −0.057 log 2 fold change
  Z.LYZ.NS: −0.494
ISC-enriched organoids [2]; [4]
  SSMD.LYZ.NS: 0.117
ISC-enriched organoids [2]; [5]
  SSMD.LYZ.NS: −0.239
ISC-enriched organoids [2]; [6]
  SSMD.LYZ.NS: 0.354
ISC-enriched organoids [2]; [7]
  SSMD.LYZ.NS: −0.421
ISC-enriched organoids [3]; Dose 0.08 uM
  Dose.FC.CTG: 0.086 log 2 fold change
  Z.CTG: 0.205
ISC-enriched organoids [3]; Dose 0.40 uM
  Dose.FC.CTG: 0.028 log 2 fold change
  Z.CTG: 0.067
ISC-enriched organoids [3]; Dose 2.00 uM
  Dose.FC.CTG: 0.066 log 2 fold change
  Z.CTG: 0.157
ISC-enriched organoids [3]; Dose 10.00 uM
  Dose.FC.CTG: −0.035 log 2 fold change
  Z.CTG: −0.084
ISC-enriched organoids [3]; [4]
  SSMD.CTG: 0.278
ISC-enriched organoids [3]; [5]
  SSMD.CTG: 0.087
ISC-enriched organoids [3]; [6]
  SSMD.CTG: 0.229
ISC-enriched organoids [3]; [7]
  SSMD.CTG: −0.107
